Data published in patent US20220242812A1, “SWELL1-LRRC8 COMPLEX MODULATORS” (Washington University, priority 2019, published 2022).
pIC50: −log10 of the molar value.

Tests used:
[1] = system: polygenic T2D KKAy mice; test: Metabolic phenotyping (fasting glucose, GTT, ITT) in polygenic T2D KKAy mice; format: in vivo; details: polygenic T2D KKAy model, 5 mg/kg i.p. 4 days
Description: All C57BL/6 mice involved in study were purchased from Charles River Labs. Both KK.Cg-Ay/J (KKN) and KK.Cg-Aa/J (KKAa) mice involved in study were gender and age-matched mice obtained from Jackson Labs (Stock No: 002468) and bred up for experiments. The mice were fed ad libitum with either regular chow (RC) or high-fat diet (Research Diets, Inc., 60 kcal % fat) with free access to water and housed in a light-, temperature- and humidity-controlled room. For high-fat diet (HFD) studies, only male mice were used and were started on HFD regimen at the age of 6-9 weeks. For all experiments involving KKN and KKAa mice, both males and females were used at approximately 50/50 ratio. In all experiments involving mice, investigators were kept blinded both during the experiments and subsequent analysis.
All compounds were dissolved in Kolliphor® EL (Sigma, #C5135).
(§1) Mice were fasted for 6 h prior to glucose tolerance tests (GTT). Baseline glucose levels at 0 min timepoint (fasting glucose, FG) were measured from blood sample collected from tail snipping using glucometer (Bayer Healthcare LLC). Either 1 g or 0.75 g D-Glucose/kg body weight were injected (i.p.) for lean or HFD mice, respectively and glucose levels were measured at 7, 15, 30, 60, 90 and 120 min timepoints after injection. For insulin tolerance tests (ITTs), the mice were fasted for 4 h. Similar to GTTs, the baseline blood glucose levels were measured at 0 min timepoint and 15, 30, 60, 90 and 120 min timepoints post-injection (i.p.) of insulin (HumulinR, 1 U/kg body weight for lean mice or 1.25 U/kg body weight for HFD mice). […] The collected plasma was then measured for insulin content by using Ultra-Sensitive Mouse Insulin ELISA Kit (Crystal Chem, #90080). All mice and treatment groups were assessed blindly while performing experiments.

[2] = system: T2D KKAy mice; test: Hyperinsulinemic euglycemic glucose clamp in T2D KKAy mice; format: in vivo
Method: Sterile silicone catheters (Dow-Corning) were placed into the jugular vein of mice under isoflurane anesthesia. Placed catheter was flushed with 200 U/ml heparin in saline and the free end of the catheter was directed subcutaneously via a blunted 14-gauge sterile needle and connected to a small tubing device that exited through the back of the animal. […] Hyperinsulinemic euglycemic clamps were performed on day 8 post-surgery on unrestrained, conscious mice as described elsewhere (Ayala et al., 2011; Kim et al., 2000), with some modifications. Mice were fasted for 6 h at which time insulin and glucose infusion were initiated (time 0). At 80 min prior to time 0 basal sampling was conducted, where whole-body glucose flux was traced by infusion of 0.05 μCi/min D-[3-3H]-glucose (Perkin Elmer), after a priming 5 μCi bolus for 1 minute. After the basal period, starting at time 0 D-[3-3H]-glucose was continuously infused at the 0.2 μCi/min rate and the infusion of insulin (Humulin, Eli Lilly) was initiated with a bolus of 80 mU/kg/min then followed by continuous infusion of insulin at the dose of 8 mU/kg/min throughout the assay. Fifty percent dextrose (Hospira) was infused at a variable rates (GIR) starting at the same time as the initiation of insulin infusion to maintain euglycemia at the targeted level of 150 mg/dl ([…]). Blood glucose (BG) measurements were taken every ten minutes via tail vein sampling using Contour glucometer (Bayer). After mouse reached stable BG and GIR (typically, after 75 minutes since starting the insulin infusion; for some mice, a longer time was required to achieve steady state) a single bolus of 12 μCi of [1-14C]-2-deoxy-D-glucose (Perkin Elmer) in 96 μl of saline was administered. Plasma samples (collected from centrifuged blood) for determination of tracers enrichment, glucose level and insulin concentration were obtained at times −80, −20, −10, 0, and every 10 min starting at 80 min post-insulin (5 min after [1-14C]-2-deoxy-D-glucose bolus was administered) until the conclusion of the assay at 140 min. Tissue samples were then collected from mice under isofluorane anesthesia from organs of interest (e.g., liver, heart, kidney, white adipose tissue, brown adipose tissue, gastrocnemius, soleus etc.) for determination of 1-14C1-2-deoxy-D-glucose tracer uptake. Plasma and tissue samples were processed as described previously (Ayala et al., 2011). Briefly, plasma samples were deproteinized with Ba(OH)2 and ZnSO4 and dried to eliminate tritiated water. The glucose turnover rate (mg/kg-min) was calculated as the rate of tracer infusion (dpm/min) divided by the corrected plasma glucose specific activity (dpm/mg) per kg body weight of the mouse. Fluctuations from steady state were accounted for by use of Steele's model. Plasma glucose was measured using Analox GMD9 system (Analox Technologies).
Tissue samples (˜30 mg each) were homogenized in 750 μl of 0.5% perchloric acid, neutralized with 10 M KOH and centrifuged. The supernatant was then used for first measuring the abundance of total [1-14C] signal (derived from both 1-14C-2-deoxy-D-glucose, 1-14C-2-deoxy-D-glucose 6 phosphate) and, following a precipitation step with 0.3 N […] and 0.3 N ZnSO4, for the measuring of non-phosphorylated 1-14C-2-deoxy-D-glucose. Glycogen was isolated by ethanol precipitation from 30% KOH tissue lysates, as described (Shiota, 2012). Insulin level in plasma at T0 and T140 were measured using a Stellux ELISA rodent insulin kit (Alpco).

[3] = system: insulin secretion; test: Glucose-stimulated insulin secretion in plasma of HFD mice; format: in vivo; details: 21 weeks HFD
Method: as §1

[4] = target: VRAC/ICl,SWELL (Homo sapiens, UniProt Q8IWT6); details: selective VRAC/ICl,SWELL inhibitor; cited from earlier work
[5] = system: insulin-AKT2-AS160 signaling (pAKT2, pAS160); test: Insulin-stimulated AKT2-AS160 signaling western blot in 3T3-F442A cells
[6] = system: SWELL1, LRRC8b, LRRC8c, LRRC8d, LRRC8e mRNA; format: cell-based; details: 3T3-F442A preadipocytes, 10 μM 96 h
Method: Data are represented as mean±SEM. Two-tailed unpaired t-test was used where *, ** and *** represents p<0.05, p<0.01 and p<0.001 respectively.
The cDNA synthesis, qRT-PCR reaction and quantification were carried out as described previously (Zhang et al., 2017).

Q: For `CCCCC1(C2CCCC2)Cc2cc(OCCCC(=O)O)c(Cl)c(Cl)c2C1=O` (stereo not drawn) [SN-401, 4-((2-butyl-6,7-dichloro-2-cyclopentyl-1-oxo-2,3-dihydro-1H-inden-5-yl)oxy)butanoic acid], which “Fasting blood glucose (FG)” value [1] is on record?
A: Its value is “normalized”.

Q: What about the “Glucose tolerance (GTT)” value [1] of the same compound?
A: Its value is “normalized”.

Q: What about the “Insulin-tolerance (ITT)” value [1] of the same compound?
A: The value was “markedly improved”.

Q: What about the “Glucose-infusion rate (GIR) to maintain euglycemia” value ([2]; T2D KKAy mice, 5 mg/kg i.p. 4 days, vs vehicle) of the same compound?
A: Its value is “higher”.

Q: What about the “Reduction of hepatic glucose production (Ra) at baseline” value ([2]; T2D KKAy mice, Basal) of the same compound?
A: Its value is 40%.

Q: And the “Suppression of hepatic glucose production (Ra) during glucose/insulin infusion” value ([2]; T2D KKAy mice, Clamp)?
A: Its value is 75%.

Q: What about the “Glucose incorporation into glycogen” value ([2]; adipose) of the same compound?
A: The value was “markedly increased”.

Q: And the “Insulin-stimulated 2-DG uptake” value ([2]; brown fat)?
A: The value was “not”.

Q: And the “Insulin-stimulated 2-DG uptake” value ([2]; gonadal white adipose tissue (gWAT))?
A: Its value is “enhanced”.

Q: And the “Insulin-stimulated 2-DG uptake” value ([2]; inguinal white adipose tissue (iWAT))?
A: The value was “enhanced”.

Q: And the “Glucose incorporation into glycogen” value ([2]; liver)?
A: The value was “markedly increased”.

Q: And the “Insulin-stimulated 2-DG uptake” value ([2]; myocardium)?
A: Its value is “enhanced”.

Q: What about the “Glucose incorporation into glycogen” value ([2]; skeletal muscle) of the same compound?
A: Its value is “markedly increased”.

Q: And the “Insulin-stimulated 2-DG uptake” value ([2]; skeletal muscle)?
A: Its value is “not”.

Q: What about the “Glucose-stimulated insulin secretion (GSIS), serum insulin measurements” value [3] of the same compound?
A: The value was “significantly improved”.

Q: What about the pIC50 [4] of the same compound?
A: The pIC50 was about 5.30.

Q: And the Insulin-pAKT2 signaling ([5]; 3T3-F442A adipocytes, 1 μM 96 hours followed by washout, vs vehicle)?
A: The Insulin-pAKT2 signaling was “robustly increases”.

Q: What about the “Effects on insulin-AKT2-AS160 signaling in SWELL1 KO cells” value ([5]; SWELL1 KO 3T3-F442A adipocytes) of the same compound?
A: The value was “absent”.

Q: What about the “Insulin-stimulated levels of pAS160” value ([5]; WT 3T3-F442A adipocytes, 10 μM 96 h) of the same compound?
A: The value was “enhanced”.

Q: And the “Insulin-stimulated levels of pAKT2” value ([5]; WT 3T3-F442A, 10 μM 96 h)?
A: The value was “enhanced”.

Q: And the “SWELL1, LRRC8b, LRRC8c, LRRC8d or LRRC8e mRNA expression” value [6]?
A: Its value is “not associated with increases”.
